Legend:
ECHCG (Barnyardgrass) = experiment: Postemergence herbicidal evaluation; assay type: in vivo, Echinochloa crus-galli
Outline: (§1)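 Seedlings grown about two weeks were sprayed at 40 psi with compound dispersed in 50/50 acetone/water plus 0.5% TWEEN 20, at about 0.0156 to 0.500 kg/ha. Plants were kept in the greenhouse and scored 4–5 weeks later on a 0–9 visual scale against untreated controls.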

GALAP (Galium) [1] = experiment: Postemergence herbicidal evaluation; assay type: in vivo, Galium aparine
Outline: as §1

CYPSE (Flatsedge) [2] = experiment: Preemergence weed control under flooded paddy conditions; assay type: in vivo, Cyperus serotinus; details: rated 3-4 weeks after treatment
Outline: (§2)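 Ratings on a 0-9 visual scale cover stand, vigor, malformation, size, chlorosis and overall appearance relative to a control, taken three to four weeks post-treatment. Application was into flood water over freshly sown silt loam at roughly 0.0313 to 0.500 kg/ha.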

CYPIR (Rice Flatsedge) = experiment: as above; assay type: in vivo, Cyperus iria; details: rated 3-4 weeks after treatment
Outline: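 Seeds or propagules sown in top 0.5 cm of silt loam soil, flooded 1.5 to 3 cm above surface throughout. Compound in 50/50 v/v aqueous/acetone pipetted into flood water at about 0.0313 to 0.500 kg/ha. Visual 0-9 rating versus control after three to four weeks in greenhouse.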

CYPSE (Flatsedge) [3] = experiment: Postemergence weed control under flooded paddy conditions; assay type: in vivo, Cyperus serotinus; details: postemergence weeds, 3-4 weeks after treatment
Outline: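 Containers holding 3–5 cm weeds and rice at 1.5–2.5 leaves are flooded to 1.5–3 cm above soil. Compound in 50/50 v/v aqueous/acetone is then added directly to the water, about 0.0313–0.500 kg/ha. Plants are kept in the greenhouse and rated 0–9 visually at 3–4 weeks.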

[4] = test system: CHEAL (Lambsquarters, Common); experiment: Postemergence herbicidal evaluation; assay type: in vivo, Chenopodium album
Outline: as §1

CASOB (Sicklepod) [5] = experiment: Preemergence herbicidal evaluation; assay type: in vivo, Cassia obtusifolia; details: rated 4-5 weeks after treatment
Outline: (§3)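 Seeds were mixed with potting soil and planted on about one inch of soil, then sprayed with test compound in aqueous acetone at about 0.0156 to 0.500 kg per hectare. Plants grew under standard greenhouse care and were visually rated 0-9 against untreated controls 4-5 weeks post-treatment.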

[6] = test system: GLXMAW (Soybean, Williams); experiment: Postemergence herbicidal evaluation; assay type: in vivo, Glycine max, (L.) Merr. cv Williams
Outline: as §1

SETVI (Foxtail, Green) = experiment: Postemergence herbicidal evaluation; assay type: in vivo, Setaria viridis
Outline: as §1

GALAP (Galium) [7] = experiment: Preemergence herbicidal evaluation; assay type: in vivo, Galium aparine; details: rated 4-5 weeks after treatment
Outline: as §3

ZEAMX (Corn, Field) = experiment: Preemergence herbicidal evaluation; assay type: in vivo, Zea mays; details: rated 4-5 weeks after treatment
Outline: as §3

AMBEL (Ragweed, Common) = experiment: Postemergence herbicidal evaluation; assay type: in vivo, Ambrosia artemisifolia
Outline: as §1

ORYSAT (Rice, Tebonnet) = experiment: Postemergence herbicidal evaluation; assay type: in vivo, Oryza sativa, (L.) Tebonnet
Outline: as §1

CASOB (Sicklepod) [8] = experiment: Postemergence herbicidal evaluation; assay type: in vivo, Cassia obtusifolia
Outline: as §1

[9] = test system: SAGPY (Arrowhead (Pygmaea)); experiment: Preemergence weed control under flooded paddy conditions; assay type: in vivo, Sagittaria pygmaea; details: rated 3-4 weeks after treatment
Outline: as §2

SMILES: CCOC(=O)CN1C(=O)C(CC(=O)O)O/C1=N/c1cc(-n2c(=O)cc(C(F)(F)F)n(C)c2=O)c(F)cc1Cl (stereo not drawn) [Compound 41, 2-{{2-Chloro-5-[3,6-dihydro-3-methyl-2,6-dioxo-4-(trifluoromethyl)-1(2H)-pyrimidinyl]-4-fluoro-phenyl}imino}-4-oxo-3,5-oxazolidinediacetic acid, 3-ethyl ester]
- Postemergence herbicidal rating ECHCG (ECHCG (Barnyardgrass); Rate 0.0158 kg/ha): 2.0
- Postemergence herbicidal rating ECHCG (ECHCG (Barnyardgrass); Rate 0.0315 kg/ha): 7.0
- Postemergence herbicidal rating ECHCG (ECHCG (Barnyardgrass); Rate 0.0630 kg/ha): 9.0
- Postemergence herbicidal rating GALAP (GALAP (Galium) [1]; Rate 0.0158 kg/ha): 1.0
- Postemergence herbicidal rating GALAP (GALAP (Galium) [1]; Rate 0.0315 kg/ha): 2.0
- Postemergence herbicidal rating GALAP (GALAP (Galium) [1]; Rate 0.0630 kg/ha): 5.0
- Herbicidal rating CYPSE (CYPSE (Flatsedge) [2]; 0.0313 kg/ha): 0.0
- Herbicidal rating CYPSE (CYPSE (Flatsedge) [2]; 0.0625 kg/ha): 0.0
- Herbicidal rating CYPSE (CYPSE (Flatsedge) [2]; 0.1250 kg/ha): 2.0
- Herbicidal rating CYPSE (CYPSE (Flatsedge) [2]; 0.2500 kg/ha): 7.0
- Herbicidal rating CYPIR (CYPIR (Rice Flatsedge); 0.0313 kg/ha): 0.0
- Herbicidal rating CYPIR (CYPIR (Rice Flatsedge); 0.0625 kg/ha): 0.0
- Herbicidal rating CYPIR (CYPIR (Rice Flatsedge); 0.1250 kg/ha): 0.0
- Herbicidal rating CYPIR (CYPIR (Rice Flatsedge); 0.2500 kg/ha): 4.0
- Herbicidal rating CYPSE (CYPSE (Flatsedge) [3]; rate 0.0313 kg/ha): 0.0
- Herbicidal rating CYPSE (CYPSE (Flatsedge) [3]; rate 0.0625 kg/ha): 0.0
- Herbicidal rating CYPSE (CYPSE (Flatsedge) [3]; rate 0.1250 kg/ha): 2.0
- Herbicidal rating CYPSE (CYPSE (Flatsedge) [3]; rate 0.2500 kg/ha): 7.0
- Postemergence herbicidal rating CHEAL ([4]; Rate 0.0158 kg/ha): 3.0
- Postemergence herbicidal rating CHEAL ([4]; Rate 0.0315 kg/ha): 7.0
- Postemergence herbicidal rating CHEAL ([4]; Rate 0.0630 kg/ha): 9.0
- Preemergence herbicidal rating CASOB (CASOB (Sicklepod) [5]; rate 0.0156 kg/ha): 0.0
- Preemergence herbicidal rating CASOB (CASOB (Sicklepod) [5]; rate 0.0313 kg/ha): 0.0
- Preemergence herbicidal rating CASOB (CASOB (Sicklepod) [5]; rate 0.0625 kg/ha): 0.0
- Preemergence herbicidal rating CASOB (CASOB (Sicklepod) [5]; rate 0.1250 kg/ha): 9.0
- Preemergence herbicidal rating CASOB (CASOB (Sicklepod) [5]; rate 0.2500 kg/ha): 9.0
- Postemergence herbicidal rating GLXMAW ([6]; Rate 0.0158 kg/ha): 8.0
- Postemergence herbicidal rating GLXMAW ([6]; Rate 0.0315 kg/ha): 8.0
- Postemergence herbicidal rating GLXMAW ([6]; Rate 0.0630 kg/ha): 9.0
- Postemergence herbicidal rating SETVI (SETVI (Foxtail, Green); Rate 0.0158 kg/ha): 1.0
- Postemergence herbicidal rating SETVI (SETVI (Foxtail, Green); Rate 0.0315 kg/ha): 3.0
- Postemergence herbicidal rating SETVI (SETVI (Foxtail, Green); Rate 0.0630 kg/ha): 9.0
- Preemergence herbicidal rating GALAP (GALAP (Galium) [7]; rate 0.0156 kg/ha): 0.0
- Preemergence herbicidal rating GALAP (GALAP (Galium) [7]; rate 0.0625 kg/ha): 0.0
- Preemergence herbicidal rating GALAP (GALAP (Galium) [7]; rate 0.1250 kg/ha): 0.0
- Preemergence herbicidal rating GALAP (GALAP (Galium) [7]; rate 0.2500 kg/ha): 0.0
- Preemergence herbicidal rating ZEAMX (ZEAMX (Corn, Field); rate 0.0156 kg/ha): 0.0
- Preemergence herbicidal rating ZEAMX (ZEAMX (Corn, Field); rate 0.0313 kg/ha): 0.0
- Preemergence herbicidal rating ZEAMX (ZEAMX (Corn, Field); rate 0.0625 kg/ha): 1.0
- Preemergence herbicidal rating ZEAMX (ZEAMX (Corn, Field); rate 0.1250 kg/ha): 0.0
- Preemergence herbicidal rating ZEAMX (ZEAMX (Corn, Field); rate 0.2500 kg/ha): 2.0
- Postemergence herbicidal rating AMBEL (AMBEL (Ragweed, Common); Rate 0.0158 kg/ha): 9.0
- Postemergence herbicidal rating AMBEL (AMBEL (Ragweed, Common); Rate 0.0315 kg/ha): 9.0
- Postemergence herbicidal rating AMBEL (AMBEL (Ragweed, Common); Rate 0.0630 kg/ha): 9.0
- Postemergence herbicidal rating ORYSAT (ORYSAT (Rice, Tebonnet); Rate 0.0158 kg/ha): 2.5
- Postemergence herbicidal rating ORYSAT (ORYSAT (Rice, Tebonnet); Rate 0.0315 kg/ha): 3.5
- Postemergence herbicidal rating ORYSAT (ORYSAT (Rice, Tebonnet); Rate 0.0630 kg/ha): 3.5
- Postemergence herbicidal rating CASOB (CASOB (Sicklepod) [8]; Rate 0.0158 kg/ha): 1.0
- Postemergence herbicidal rating CASOB (CASOB (Sicklepod) [8]; Rate 0.0315 kg/ha): 1.0
- Postemergence herbicidal rating CASOB (CASOB (Sicklepod) [8]; Rate 0.0630 kg/ha): 5.0
- Herbicidal rating SAGPY ([9]; 0.0313 kg/ha): 0.0
- Herbicidal rating SAGPY ([9]; 0.0625 kg/ha): 0.0
- Herbicidal rating SAGPY ([9]; 0.1250 kg/ha): 0.0
- Herbicidal rating SAGPY ([9]; 0.2500 kg/ha): 6.0

SMILES: CCOC(=O)CN1CCSC1=Nc1cc(-n2nc(C)n(C(F)F)c2=O)c(F)cc1Cl [Compound 36]
- Postemergence herbicidal rating ECHCG (ECHCG (Barnyardgrass); Rate 0.0158 kg/ha): 0.0
- Postemergence herbicidal rating ECHCG (ECHCG (Barnyardgrass); Rate 0.0315 kg/ha): 2.0
- Postemergence herbicidal rating ECHCG (ECHCG (Barnyardgrass); Rate 0.0630 kg/ha): 9.0
- Postemergence herbicidal rating GALAP (GALAP (Galium) [1]; Rate 0.0158 kg/ha): 0.0
- Postemergence herbicidal rating GALAP (GALAP (Galium) [1]; Rate 0.0315 kg/ha): 1.0
- Postemergence herbicidal rating GALAP (GALAP (Galium) [1]; Rate 0.0630 kg/ha): 4.0
- Herbicidal rating CYPSE (CYPSE (Flatsedge) [2]; 0.0313 kg/ha): 0.0
- Herbicidal rating CYPSE (CYPSE (Flatsedge) [2]; 0.0625 kg/ha): 0.0
- Herbicidal rating CYPSE (CYPSE (Flatsedge) [2]; 0.1250 kg/ha): 2.0
- Herbicidal rating CYPSE (CYPSE (Flatsedge) [2]; 0.2500 kg/ha): 4.0
- Herbicidal rating CYPIR (CYPIR (Rice Flatsedge); 0.0313 kg/ha): 0.0
- Herbicidal rating CYPIR (CYPIR (Rice Flatsedge); 0.0625 kg/ha): 5.0
- Herbicidal rating CYPIR (CYPIR (Rice Flatsedge); 0.1250 kg/ha): 5.0
- Herbicidal rating CYPIR (CYPIR (Rice Flatsedge); 0.2500 kg/ha): 9.0
- Herbicidal rating CYPSE (CYPSE (Flatsedge) [3]; rate 0.0313 kg/ha): 0.0
- Herbicidal rating CYPSE (CYPSE (Flatsedge) [3]; rate 0.0625 kg/ha): 0.0
- Herbicidal rating CYPSE (CYPSE (Flatsedge) [3]; rate 0.1250 kg/ha): 2.0
- Herbicidal rating CYPSE (CYPSE (Flatsedge) [3]; rate 0.2500 kg/ha): 4.0
- Postemergence herbicidal rating CHEAL ([4]; Rate 0.0158 kg/ha): 2.0
- Postemergence herbicidal rating CHEAL ([4]; Rate 0.0315 kg/ha): 3.0
- Postemergence herbicidal rating CHEAL ([4]; Rate 0.0630 kg/ha): 4.0
- Preemergence herbicidal rating CASOB (CASOB (Sicklepod) [5]; rate 0.0625 kg/ha): 0.0
- Preemergence herbicidal rating CASOB (CASOB (Sicklepod) [5]; rate 0.2500 kg/ha): 0.0
- Postemergence herbicidal rating GLXMAW ([6]; Rate 0.0158 kg/ha): 5.0
- Postemergence herbicidal rating GLXMAW ([6]; Rate 0.0315 kg/ha): 5.5
- Postemergence herbicidal rating GLXMAW ([6]; Rate 0.0630 kg/ha): 8.0
- Postemergence herbicidal rating SETVI (SETVI (Foxtail, Green); Rate 0.0158 kg/ha): 3.0
- Postemergence herbicidal rating SETVI (SETVI (Foxtail, Green); Rate 0.0315 kg/ha): 9.0
- Postemergence herbicidal rating SETVI (SETVI (Foxtail, Green); Rate 0.0630 kg/ha): 9.0
- Preemergence herbicidal rating GALAP (GALAP (Galium) [7]; rate 0.0625 kg/ha): 9.0
- Preemergence herbicidal rating GALAP (GALAP (Galium) [7]; rate 0.1250 kg/ha): 9.0
- Preemergence herbicidal rating GALAP (GALAP (Galium) [7]; rate 0.2500 kg/ha): 9.0
- Preemergence herbicidal rating ZEAMX (ZEAMX (Corn, Field); rate 0.0625 kg/ha): 0.0
- Preemergence herbicidal rating ZEAMX (ZEAMX (Corn, Field); rate 0.1250 kg/ha): 3.0
- Preemergence herbicidal rating ZEAMX (ZEAMX (Corn, Field); rate 0.2500 kg/ha): 6.0
- Postemergence herbicidal rating AMBEL (AMBEL (Ragweed, Common); Rate 0.0158 kg/ha): 2.0
- Postemergence herbicidal rating AMBEL (AMBEL (Ragweed, Common); Rate 0.0315 kg/ha): 3.0
- Postemergence herbicidal rating AMBEL (AMBEL (Ragweed, Common); Rate 0.0630 kg/ha): 9.0
- Postemergence herbicidal rating ORYSAT (ORYSAT (Rice, Tebonnet); Rate 0.0158 kg/ha): 0.5
- Postemergence herbicidal rating ORYSAT (ORYSAT (Rice, Tebonnet); Rate 0.0315 kg/ha): 1.0
- Postemergence herbicidal rating ORYSAT (ORYSAT (Rice, Tebonnet); Rate 0.0630 kg/ha): 6.0
- Postemergence herbicidal rating CASOB (CASOB (Sicklepod) [8]; Rate 0.0158 kg/ha): 0.0
- Postemergence herbicidal rating CASOB (CASOB (Sicklepod) [8]; Rate 0.0315 kg/ha): 0.0
- Postemergence herbicidal rating CASOB (CASOB (Sicklepod) [8]; Rate 0.0630 kg/ha): 0.0
- Herbicidal rating SAGPY ([9]; 0.0313 kg/ha): 0.0
- Herbicidal rating SAGPY ([9]; 0.0625 kg/ha): 0.0
- Herbicidal rating SAGPY ([9]; 0.1250 kg/ha): 3.0
- Herbicidal rating SAGPY ([9]; 0.2500 kg/ha): 9.0

— patent publication US20020137929A1, “1 - (3-heterocyclylphenyl) isothiourea, -isourea, -guanidine and -amidine herbicidal agents” (Intellectual Property Department, BASF Aktiengesellschaft, priority 1998, published 2002)
